Source: patent US11629171B2, “Beta-hairpin peptidomimetics” (POLYPHOR AG, priority 2017, dated 2023)
≈ marks a conversion by molar mass, not a printed value. Where a SMILES comes first, the peptide text is derived from it. Bridges are numbered along the chain shown (N, C = ends). Roman numbers before positions name the chains, in order. [ ]: non-standard residue; d: D form. The star is where a group is joined. Tle = CC(C)(C)[C@H](N)C(=O)O; NMeV = CN[C@H](C(=O)O)C(C)C; Hiv = CC(C)[C@H](O)C(=O)O; dDab = NCC[C@@H](N)C(=O)O; hSer = N[C@@H](CCO)C(=O)O; NHCH(CH2OH)2 = OCC(CO)N*; Orn = NCCC[C@H](N)C(=O)O; Dab = NCC[C@H](N)C(=O)O; Dap = NC[C@H](N)C(=O)O

Experiments:
Type in all cases: cell-based
[1] = system: Enterobacter cloacae 848840; conditions: 848840
In short: (§1)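 Peptides are tested in serial two-fold dilutions against about 10^6 CFU/mL in MH-II broth containing 0.002% P-80 (v/v, final). Plates incubate 18-20 h at 35° C, and the MIC is the lowest peptide level (μg/mL) showing no visible growth.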

[2] = system: Klebsiella pneumoniae SSI #3010; conditions: SSI #3010
In short: as §1

Escherichia coli 926415 = conditions: 926415
In short: as §1

[3] = system: Escherichia coli ATCC 25922; conditions: ATCC 25922
In short: as §1

[4] = system: Acinetobacter baumannii DSM 30008; conditions: DSM 30008
In short: as §1

[5] = system: Acinetobacter baumannii 872842; conditions: 872842
In short: as §1

[6] = system: Pseudomonas aeruginosa ATCC 27853; conditions: ATCC 27853
In short: as §1

[7] = system: Klebsiella pneumoniae 968733; conditions: 968733
In short: as §1

[8] = system: human red blood cells (hRBC); assay: Hemolysis; conditions: red cells of human, 1 h, 200
In short: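 First, fresh human erythrocytes are washed in PBS; next, they are incubated at 20% (v/v) with compound at 200 μg/mL for 1 h at 37° C. Finally, centrifuged supernatants are diluted and OD540 is taken relative to the Triton X-100 lysis control.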

Row | Compound | MIC [1] [µg/mL] | MIC [2] [µg/mL] | MIC (Escherichia coli 926415) [µg/mL] | MIC [3] [µg/mL] | MIC [4] [µg/mL] | MIC [5] [µg/mL] | MIC [6] [µg/mL] | MIC [7] [µg/mL] | Hemolysis at 200 μg/mL [8] [%]
1 | CC(C)C[C@@H]1NC(=O)[C@@H](CC(C)C)NC(=O)[C@H](CCN)NC(=O)[C@@H](NC(=O)[C@H](CN)NC(=O)[C@@H](NC(=O)[C@H](CCN)NC(=O)CC[C@H]2NC(=O)[C@@H](CCN)NC(=O)CNC(=O)[C@H](CCN)NC(=O)[C@H](Cc3ccc(O)cc3)NC(=O)[C@@H](NC(=O)[C@@H](O)C(C)C)CSSC[C@@H](C(=O)N[C@H](C(N)=O)[C@@H](C)O)NC(=O)[C@H](C(C)(C)C)NC(=O)[C@H](CO)NC(=O)[C@H](Cc3c[nH]c4ccccc34)NC2=O)[C@@H](C)O)CCNC(=O)[C@H]([C@@H](C)O)NC(=O)[C@H](CCN)NC(=O)[C@H](CCN)NC1=O [Ex. 171] (I: H-[Hiv]CY[Dab]G[dDab][dE]WS[Tle]CT-NH2 / II: [Dab]T[Dap][Dab][Dab][dL]L[Dab][Dab]T; disulfide I:2-I:11; amide I:7-II:N; lactam II:4-II:C) | 0.5 (≈ 0.212 µM) | 0.125 (≈ 0.0531 µM) | 0.125 (≈ 0.0531 µM) | 0.125 (≈ 0.0531 µM) | 0.0625 (≈ 0.0265 µM) | 0.0625 (≈ 0.0265 µM) | 0.25 (≈ 0.106 µM) | 0.5 (≈ 0.212 µM) | <1
2 | CC(C)C[C@@H]1NC(=O)[C@@H](CC(C)C)NC(=O)[C@H](CCN)NC(=O)[C@@H](NC(=O)[C@H](CN)NC(=O)[C@@H](NC(=O)[C@H](CCN)NC(=O)CC[C@@H]2NC(=O)[C@@H](CCN)NC(=O)[C@H](CCCN)NC(=O)[C@H](CCN)NC(=O)[C@H](Cc3ccc(O)cc3)NC(=O)[C@@H](NC(=O)[C@@H](O)C(C)C)CSSC[C@@H](C(=O)NC(CO)CO)NC(=O)[C@H](C(C)(C)C)NC(=O)[C@H](CO)NC(=O)[C@H](Cc3c[nH]c4ccccc34)NC2=O)[C@@H](C)O)CCNC(=O)[C@H]([C@@H](C)O)NC(=O)[C@H](CCN)NC(=O)[C@H](CCN)NC1=O [Ex. 172] (I: H-[Hiv]CY[Dab][Orn][dDab]EWS[Tle]C-{NHCH(CH2OH)2} / II: [Dab]T[Dap][Dab][Dab][dL]L[Dab][Dab]T; disulfide I:2-I:11; amide I:7-II:N; lactam II:4-II:C) | 0.25 (≈ 0.105 µM) | 0.125 (≈ 0.0524 µM) | 0.25 (≈ 0.105 µM) | 0.125 (≈ 0.0524 µM) | 0.125 (≈ 0.0524 µM) | 0.125 (≈ 0.0524 µM) | 0.25 (≈ 0.105 µM) | 0.5 (≈ 0.21 µM) | <1
3 | CC(C)C[C@@H]1NC(=O)[C@@H](CC(C)C)NC(=O)[C@H](CCN)NC(=O)[C@@H](NC(=O)[C@H](CN)NC(=O)[C@@H](NC(=O)[C@H](CCN)NC(=O)CC[C@@H]2NC(=O)CNC(=O)[C@H](CCCN)NC(=O)[C@H](CCN)NC(=O)[C@H](Cc3ccc(O)cc3)NC(=O)[C@@H](NC(=O)[C@@H](O)C(C)C)CSSC[C@@H](C(=O)NC(CO)CO)NC(=O)[C@H](C(C)(C)C)NC(=O)[C@H](CO)NC(=O)[C@H](Cc3c[nH]c4ccccc34)NC2=O)[C@@H](C)O)CCNC(=O)[C@H]([C@@H](C)O)NC(=O)[C@H](CCN)NC(=O)[C@H](CCN)NC1=O [Ex. 173] (I: H-[Hiv]CY[Dab][Orn]GEWS[Tle]C-{NHCH(CH2OH)2} / II: [Dab]T[Dap][Dab][Dab][dL]L[Dab][Dab]T; disulfide I:2-I:11; amide I:7-II:N; lactam II:4-II:C) | 4 (≈ 1.71 µM) | 0.125 (≈ 0.0534 µM) | 0.25 (≈ 0.107 µM) | 0.125 (≈ 0.0534 µM) | 0.0625 (≈ 0.0267 µM) | 0.125 (≈ 0.0534 µM) | 0.5 (≈ 0.213 µM) | 2 (≈ 0.854 µM) | <1
4 | CC(C)C[C@@H]1NC(=O)[C@@H](CC(C)C)NC(=O)[C@H](CCN)NC(=O)[C@@H](NC(=O)[C@H](CN)NC(=O)[C@@H](NC(=O)[C@H](CCN)NC(=O)CC[C@@H]2NC(=O)[C@@H](CCN)NC(=O)CNC(=O)[C@H](CCN)NC(=O)[C@H](Cc3ccc(O)cc3)NC(=O)[C@@H](NC(=O)[C@@H](O)C(C)C)CSSC[C@@H](C(=O)NC(CO)CO)NC(=O)[C@H](C(C)(C)C)NC(=O)[C@H](CO)NC(=O)[C@H](Cc3c[nH]c4ccccc34)NC2=O)[C@@H](C)O)CCNC(=O)[C@H]([C@@H](C)O)NC(=O)[C@H](CCN)NC(=O)[C@H](CCN)NC1=O [Ex. 174] (I: H-[Hiv]CY[Dab]G[dDab]EWS[Tle]C-{NHCH(CH2OH)2} / II: [Dab]T[Dap][Dab][Dab][dL]L[Dab][Dab]T; disulfide I:2-I:11; amide I:7-II:N; lactam II:4-II:C) | 0.25 (≈ 0.107 µM) | 0.0625 (≈ 0.0268 µM) | 0.125 (≈ 0.0537 µM) | 0.0625 (≈ 0.0268 µM) | 0.0625 (≈ 0.0268 µM) | 0.125 (≈ 0.0537 µM) | 0.125 (≈ 0.0537 µM) | 0.25 (≈ 0.107 µM) | <1
5 | CC(=O)N[C@H](C(=O)N[C@H]1CSSC[C@@H](C(=O)N[C@@H](CO)C(N)=O)NC(=O)[C@H](C(C)C)NC(=O)[C@@H]2CSSC[C@H](NC(=O)[C@H](Cc3ccc(O)cc3)NC1=O)C(=O)N[C@@H](CCC(=O)N[C@@H](CCN)C(=O)N[C@H](C(=O)N[C@@H](CCN)C(=O)N[C@H]1CCNC(=O)[C@H]([C@@H](C)O)NC(=O)[C@H](CCN)NC(=O)[C@H](CCN)NC(=O)[C@H](CC(C)C)NC(=O)[C@@H](CC(C)C)NC(=O)[C@H](CCN)NC1=O)[C@@H](C)O)C(=O)N[C@H](CCN)C(=O)N[C@@H](CCO)C(=O)N[C@@H](Cc1c[nH]c3ccccc13)C(=O)N2)C(C)C [Ex. 175] (I: Ac-VCYCE[dDab][hSer]WCVCS-NH2 / II: [Dab]T[Dab][Dab][Dab][dL]L[Dab][Dab]T; disulfide I:2-I:11, I:4-I:9; amide I:5-II:N; lactam II:4-II:C) | 0.25 (≈ 0.102 µM) | 0.125 (≈ 0.0511 µM) | 0.25 (≈ 0.102 µM) | 0.0625 (≈ 0.0256 µM) | 0.125 (≈ 0.0511 µM) | 0.0625 (≈ 0.0256 µM) | 0.125 (≈ 0.0511 µM) | 0.5 (≈ 0.205 µM) | 1
6 | CC(C)C[C@@H]1NC(=O)[C@@H](CC(C)C)NC(=O)[C@H](CCN)NC(=O)[C@@H](NC(=O)[C@H](CCN)NC(=O)[C@@H](NC(=O)[C@H](CCN)NC(=O)CC[C@@H]2NC(=O)[C@@H]3CSSC[C@H](NC(=O)[C@H](Cc4c[nH]c5ccccc45)NC(=O)[C@H](CCO)NC(=O)[C@@H](CCN)NC2=O)C(=O)N[C@@H](C(C)C)C(=O)N[C@H](C(=O)N[C@@H](CO)C(N)=O)CSSC[C@H](NC(=O)[C@@H](N)C(C)C)C(=O)N[C@@H](Cc2ccc(O)cc2)C(=O)N3)[C@@H](C)O)CCNC(=O)[C@H]([C@@H](C)O)NC(=O)[C@H](CCN)NC(=O)[C@H](CCN)NC1=O [Ex. 176] (I: H-VCYCE[dDab][hSer]WCVCS-NH2 / II: [Dab]T[Dab][Dab][Dab][dL]L[Dab][Dab]T; disulfide I:2-I:11, I:4-I:9; amide I:5-II:N; lactam II:4-II:C) | 0.5 (≈ 0.208 µM) | 0.125 (≈ 0.052 µM) | 0.25 (≈ 0.104 µM) | 0.0625 (≈ 0.026 µM) | 0.125 (≈ 0.052 µM) | 0.125 (≈ 0.052 µM) | 0.125 (≈ 0.052 µM) | 0.25 (≈ 0.104 µM) | <1
7 | CN[C@H](C(=O)N[C@H]1CSSC[C@@H](C(=O)N[C@@H](CO)C(N)=O)NC(=O)[C@H](C(C)C)NC(=O)[C@@H]2CSSC[C@H](NC(=O)[C@H](Cc3ccc(O)cc3)NC1=O)C(=O)N[C@@H](CCC(=O)N[C@@H](CCN)C(=O)N[C@H](C(=O)N[C@@H](CCN)C(=O)N[C@H]1CCNC(=O)[C@H]([C@@H](C)O)NC(=O)[C@H](CCN)NC(=O)[C@H](CCN)NC(=O)[C@H](CC(C)C)NC(=O)[C@@H](CC(C)C)NC(=O)[C@H](CCN)NC1=O)[C@@H](C)O)C(=O)N[C@H](CCN)C(=O)N[C@@H](CCO)C(=O)N[C@@H](Cc1c[nH]c3ccccc13)C(=O)N2)C(C)C [Ex. 177] (I: H-[NMeV]CYCE[dDab][hSer]WCVCS-NH2 / II: [Dab]T[Dab][Dab][Dab][dL]L[Dab][Dab]T; disulfide I:2-I:11, I:4-I:9; amide I:5-II:N; lactam II:4-II:C) | 1 (≈ 0.414 µM) | 0.25 (≈ 0.103 µM) | 0.25 (≈ 0.103 µM) | 0.0625 (≈ 0.0259 µM) | 0.0625 (≈ 0.0259 µM) | 0.125 (≈ 0.0517 µM) | 0.125 (≈ 0.0517 µM) | 0.5 (≈ 0.207 µM) | <1
8 | CC(=O)N[C@H](C(=O)N[C@H](C(=O)N[C@@H](Cc1ccc(O)cc1)C(=O)N[C@H]1CSSC[C@@H](C(=O)N[C@H](C(=O)N[C@@H](C)C(=O)N[C@@H](CO)C(N)=O)C(C)(C)C)NC(=O)[C@H](Cc2c[nH]c3ccccc23)NC(=O)[C@H]([C@@H](C)O)NC(=O)[C@@H](CCN)NC(=O)[C@H](CCC(=O)N[C@@H](CCN)C(=O)N[C@H](C(=O)N[C@@H](CCN)C(=O)N[C@H]2CCNC(=O)[C@H]([C@@H](C)O)NC(=O)[C@H](CCN)NC(=O)[C@H](CCN)NC(=O)[C@H](CC(C)C)NC(=O)[C@@H](CC(C)C)NC(=O)[C@H](CCN)NC2=O)[C@@H](C)O)NC1=O)[C@@H](C)O)C(C)C [Ex. 178] (I: Ac-VTYCE[dDab]TWC[Tle]AS-NH2 / II: [Dab]T[Dab][Dab][Dab][dL]L[Dab][Dab]T; disulfide I:4-I:9; amide I:5-II:N; lactam II:4-II:C) | 0.25 (≈ 0.103 µM) | 0.125 (≈ 0.0515 µM) | 0.5 (≈ 0.206 µM) | 0.125 (≈ 0.0515 µM) | 0.0625 (≈ 0.0258 µM) | 0.25 (≈ 0.103 µM) | 0.125 (≈ 0.0515 µM) | 2 (≈ 0.824 µM) | <1
